System: patients with negative symptoms of schizophrenia
Test: Integrated analysis (pooled ITT): CGI-S and CGI-I
Assay type: in vivo, human
Conditions: for CGI-I Score, Difference (95% CI) in LS mean (vs placebo) / CGI-I Score, LS mean (SE) / CGI-I Score, Mean (SD) / CGI-I Score, Median / CGI-S Score change from Baseline, LS mean (SE) / CGI-S Score change from Baseline, Mean (SD) / CGI-S Score change from Baseline, Median / CGI-S Score, Difference (95% CI) in LS mean (vs placebo): DB; for CGI-I Score, Difference (95% CI) in LS mean (vs placebo) / CGI-I Score, LS mean (SE) / CGI-I Score, Mean (SD) / CGI-I Score, Median / CGI-S Score change from Baseline, LS mean (SE) / CGI-S Score change from Baseline, Mean (SD) / CGI-S Score change from Baseline, Median / CGI-S Score, Difference (95% CI) in LS mean (vs placebo) / CGI-I score, LS mean compared with placebo / CGI-S score, LS mean change from Baseline compared with placebo: pooled ITT; for Clinical Global Impression of Severity, Change from Baseline (LS Means [SEM]) / Clinical Global Impression of Improvement (LS Means [SEM]): ITT; for Clinical Global Impression of Improvement (LS Means [SEM]): observed data, MMRM with Baseline CGI-S as covariate
From the text: The primary integrated analysis of the efficacy of Roluperidone compared with placebo for the treatment of negative symptoms of schizophrenia is based on the change from Baseline in the PANSS Marder's negative symptoms factor score (in this document referred to as NSFS) to Week 12. Efficacy is also supported by the analysis of change from Baseline in the PSP Total score and the CGI-S to Week 12.
The CGI-S is a clinician-rated scale that is designed to rate the severity of the patient's illness at the time of assessment, including knowledge of the patient's history, psychosocial circumstances, symptoms, behavior, and the impact of the symptoms on the patient's ability to function relative to the clinician's past experience with patients who have the same diagnosis and similar improvement with treatment. Considering total clinical experience, a patient is assessed on severity of mental illness at the time of rating, where 1=normal (not at all ill); 2=borderline mentally ill; 3=mildly ill; 4=moderately ill; 5=markedly ill; 6=severely ill; or 7=extremely ill.
The Efficacy data from Study Nos. 1 and 2 were pooled. The majority of patients in the pooled ITT population completed the DB period (502 patients overall, 66.3%), with similar rates in each treatment group (placebo: 69.8%, 32 mg Roluperidone: 65.3%, and 64 mg Roluperidone: 63.8%) (Table 12). The majority (62.7%) of those who completed the DB period entered the OL period. The most common reason for discontinuation during the DB period among patients overall was withdrawal of consent (15.6%), followed by adverse events (7.3%) and lack of efficacy (5.4%) (Table 12). […] Approximately twice as many patients in the Roluperidone groups (32 mg: 8.5%; 64 mg: 9.1%) discontinued due to adverse events compared with patients in the placebo group (4.3%). More patients in the placebo group discontinued due to lack of efficacy (6.7%) than in the Roluperidone groups (32 mg: 4.4%; 64 mg: 5.1%). The low number of patients who discontinued due to lack of efficacy or withdrawal of consent probably reflects a low level of worsening of positive symptoms.
The integrated analysis supporting the efficacy of Roluperidone as a treatment for the negative symptoms of schizophrenia in adults is presented below.

## 1H-Isoindol-1-one,2-[ [1-[2-(4-fluorophenyl)-2-oxoethyl]-4-piperidinyl]methyl]-2,3-dihydro-, hydrochloride, hydrate (1:1:2) [Roluperidone]
32 mg, Week 2
  CGI-I Score, Difference (95% CI) in LS mean (vs placebo): 0.0
  CGI-I Score, LS mean (SE): 3.9 (0.05)
  CGI-I Score, Mean (SD): 3.9 (0.68)
  CGI-I Score, Median: 4.0
  CGI-S Score change from Baseline, LS mean (SE): −0.1 (0.04)
  CGI-S Score change from Baseline, Mean (SD): −0.1 (0.47)
  CGI-S Score change from Baseline, Median: 0.0
  CGI-S Score, Difference (95% CI) in LS mean (vs placebo): 0.0
32 mg, Week 4
  CGI-I Score, Difference (95% CI) in LS mean (vs placebo): −0.2
  CGI-I Score, LS mean (SE): 3.6 (0.05)
  CGI-I Score, Mean (SD): 3.6 (0.76)
  CGI-I Score, Median: 4.0
  CGI-S Score change from Baseline, LS mean (SE): −0.1 (0.03)
  CGI-S Score change from Baseline, Mean (SD): −0.1 (0.50)
  CGI-S Score change from Baseline, Median: 0.0
  CGI-S Score, Difference (95% CI) in LS mean (vs placebo): −0.1
32 mg, Week 8
  CGI-I Score, Difference (95% CI) in LS mean (vs placebo): −0.1
  CGI-I Score, LS mean (SE): 3.5 (0.06)
  CGI-I Score, Mean (SD): 3.4 (0.80)
  CGI-I Score, Median: 3.0
  CGI-S Score change from Baseline, LS mean (SE): −0.2 (0.04)
  CGI-S Score change from Baseline, Mean (SD): −0.3 (0.58)
  CGI-S Score change from Baseline, Median: 0.0
  CGI-S Score, Difference (95% CI) in LS mean (vs placebo): −0.1
32 mg, Week 12
  CGI-I Score, Difference (95% CI) in LS mean (vs placebo): −0.0
  CGI-I Score, LS mean (SE): 3.5 (0.07)
  CGI-I Score, Mean (SD): 3.4 (0.82)
  CGI-I Score, Median: 3.0
  CGI-S Score change from Baseline, LS mean (SE): −0.3 (0.05)
  CGI-S Score change from Baseline, Mean (SD): −0.4 (0.65)
  CGI-S Score change from Baseline, Median: 0.0
  CGI-S Score, Difference (95% CI) in LS mean (vs placebo): −0.1
  Clinical Global Impression of Severity, Change from Baseline (LS Means [SEM]): −0.3 (0.05)
  Clinical Global Impression of Improvement (LS Means [SEM]): 3.5 (0.07)
  CGI-I score, LS mean compared with placebo: −0.0
  CGI-S score, LS mean change from Baseline compared with placebo: −0.1
64 mg, Week 2
  CGI-I Score, Difference (95% CI) in LS mean (vs placebo): 0.0
  CGI-I Score, LS mean (SE): 3.8 (0.05)
  CGI-I Score, Mean (SD): 3.8 (0.74)
  CGI-I Score, Median: 4.0
  CGI-S Score change from Baseline, LS mean (SE): −0.1 (0.04)
  CGI-S Score change from Baseline, Mean (SD): −0.1 (0.55)
  CGI-S Score change from Baseline, Median: 0.0
  CGI-S Score, Difference (95% CI) in LS mean (vs placebo): −0.0
64 mg, Week 4
  CGI-I Score, Difference (95% CI) in LS mean (vs placebo): −0.2
  CGI-I Score, LS mean (SE): 3.6 (0.05)
  CGI-I Score, Mean (SD): 3.5 (0.72)
  CGI-I Score, Median: 4.0
  CGI-S Score change from Baseline, LS mean (SE): −0.2 (0.03)
  CGI-S Score change from Baseline, Mean (SD): −0.3 (0.56)
  CGI-S Score change from Baseline, Median: 0.0
  CGI-S Score, Difference (95% CI) in LS mean (vs placebo): −0.2
64 mg, Week 8
  CGI-I Score, Difference (95% CI) in LS mean (vs placebo): −0.2
  CGI-I Score, LS mean (SE): 3.4 (0.06)
  CGI-I Score, Mean (SD): 3.4 (0.81)
  CGI-I Score, Median: 3.0
  CGI-S Score change from Baseline, LS mean (SE): −0.3 (0.04)
  CGI-S Score change from Baseline, Mean (SD): −0.3 (0.66)
  CGI-S Score change from Baseline, Median: 0.0
  CGI-S Score, Difference (95% CI) in LS mean (vs placebo): −0.2
64 mg, Week 12
  CGI-I Score, Difference (95% CI) in LS mean (vs placebo): −0.2
  CGI-I Score, LS mean (SE): 3.4 (0.07)
  CGI-I Score, Mean (SD): 3.3 (0.85)
  CGI-I Score, Median: 3.0
  CGI-S Score change from Baseline, LS mean (SE): −0.4 (0.05)
  CGI-S Score change from Baseline, Mean (SD): −0.4 (0.69)
  CGI-S Score change from Baseline, Median: 0.0
  CGI-S Score, Difference (95% CI) in LS mean (vs placebo): −0.2
  Clinical Global Impression of Severity, Change from Baseline (LS Means [SEM]): −0.4 (0.05)
  Clinical Global Impression of Improvement (LS Means [SEM]): 3.4 (0.07)
  CGI-I score, LS mean compared with placebo: −0.2
  CGI-S score, LS mean change from Baseline compared with placebo: −0.2
Roluperidone Total, Week 2
  CGI-I Score, Mean (SD): 3.9 (0.71)
  CGI-I Score, Median: 4.0
  CGI-S Score change from Baseline, Mean (SD): −0.1 (0.51)
  CGI-S Score change from Baseline, Median: 0.0
Roluperidone Total, Week 4
  CGI-I Score, Mean (SD): 3.6 (0.74)
  CGI-I Score, Median: 4.0
  CGI-S Score change from Baseline, Mean (SD): −0.2 (0.54)
  CGI-S Score change from Baseline, Median: 0.0
Roluperidone Total, Week 8
  CGI-I Score, Mean (SD): 3.4 (0.81)
  CGI-I Score, Median: 3.0
  CGI-S Score change from Baseline, Mean (SD): −0.3 (0.62)
  CGI-S Score change from Baseline, Median: 0.0
Roluperidone Total, Week 12
  CGI-I Score, Mean (SD): 3.3 (0.83)
  CGI-I Score, Median: 3.0
  CGI-S Score change from Baseline, Mean (SD): −0.4 (0.67)
  CGI-S Score change from Baseline, Median: 0.0

Source: patent publication US20230255953A1, “USE OF ROLUPERIDONE IN PREVENTING RELAPSE IN SCHIZOPHRENIA PATIENTS” (Minerva Neurosciences, Inc., priority 2022, published 2023)
